The supplement of paper PMC10307832

Assays:
Assay in all cases: relative viability (nuclei count vs DMSO), 5 days (fraction); higher = more cells survive
[1] = system: 201T
Summary of the method: (§1)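 Cells from lung cancer lines were seeded into 1536-well plates and, one day later, dosed by pin tool. Treatments were either a single drug or a fixed dose of an anchor drug with five library-drug doses (not always all listed) in √10 steps. After 5 days, nuclei were stained in a one-step fixation (final 0.05% Triton X-100, 1% formaldehyde, 1 ug/ml Hoechst) and counted on 4× images, and relative viability is the treated-to-vehicle nuclei ratio, as the median of duplicate plates.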

[2] = system: BEN
Summary of the method: as §1

[3] = system: COR-L 105
Summary of the method: as §1

[4] = system: EKVX
Summary of the method: as §1

[5] = system: EPLC-272H
Summary of the method: as §1

[6] = system: H3255
Summary of the method: as §1

[7] = system: HCC-44
Summary of the method: as §1

[8] = system: HCC-827
Summary of the method: as §1

[9] = system: HOP-62
Summary of the method: as §1

[10] = system: LCLC-97TM1
Summary of the method: as §1

[11] = system: LOU-NH91
Summary of the method: as §1

[12] = system: LU99A
Summary of the method: as §1

[13] = system: NCI-H1395
Summary of the method: as §1

[14] = system: NCI-H1437
Summary of the method: as §1

[15] = system: NCI-H1666
Summary of the method: as §1

[16] = system: NCI-H1975
Summary of the method: as §1

[17] = system: NCI-H2085
Summary of the method: as §1

[18] = system: NCI-H2087
Summary of the method: as §1

[19] = system: NCI-H358
Summary of the method: as §1

[20] = system: NCI-H647
Summary of the method: as §1

[21] = system: PC-3 [JPC-3]
Summary of the method: as §1

[22] = system: SW 1573
Summary of the method: as §1

Oc1nc(-c2ccc(C(F)(F)F)cc2)nc2c1CSCC2 [XAV939] + CS(=O)(=O)N1CCN(Cc2cc3nc(-c4cccc5[nH]ncc45)nc(N4CCOCC4)c3s2)CC1 [Pictilisib] (partner 1 µM)
relative viability ([1]; first compound 0.08 µM): 0.673
relative viability ([1]; first compound 0.253 µM): 0.593
relative viability ([1]; first compound 0.8 µM): 0.583
relative viability ([1]; first compound 2.53 µM): 0.525
relative viability ([2]; first compound 0.08 µM): 0.579
relative viability ([2]; first compound 0.253 µM): 0.472
relative viability ([2]; first compound 0.8 µM): 0.529
relative viability ([3]; first compound 0.08 µM): 0.371
relative viability ([3]; first compound 0.253 µM): 0.304
relative viability ([3]; first compound 0.8 µM): 0.349
relative viability ([3]; first compound 2.53 µM): 0.347
relative viability ([4]; first compound 0.08 µM): 0.413
relative viability ([4]; first compound 0.253 µM): 0.301
relative viability ([4]; first compound 0.8 µM): 0.377
relative viability ([4]; first compound 2.53 µM): 0.24
relative viability ([5]; first compound 0.08 µM): 0.347
relative viability ([5]; first compound 0.253 µM): 0.36
relative viability ([5]; first compound 0.8 µM): 0.302
relative viability ([5]; first compound 2.53 µM): 0.323
relative viability ([6]; first compound 0.08 µM): 0.486
relative viability ([6]; first compound 0.253 µM): 0.374
relative viability ([6]; first compound 0.8 µM): 0.499
relative viability ([6]; first compound 2.53 µM): 0.288
relative viability ([7]; first compound 0.08 µM): 0.748
relative viability ([7]; first compound 0.253 µM): 0.627
relative viability ([7]; first compound 0.8 µM): 0.577
relative viability ([7]; first compound 2.53 µM): 0.636
relative viability ([8]; first compound 0.08 µM): 1.05
relative viability ([8]; first compound 0.253 µM): 1.02
relative viability ([8]; first compound 0.8 µM): 1.24
relative viability ([8]; first compound 2.53 µM): 1.21
relative viability ([9]; first compound 0.08 µM): 1.04
relative viability ([9]; first compound 0.253 µM): 0.62
relative viability ([9]; first compound 0.8 µM): 0.596
relative viability ([9]; first compound 2.53 µM): 0.672
relative viability ([10]; first compound 0.08 µM): 0.169
relative viability ([10]; first compound 0.253 µM): 0.198
relative viability ([10]; first compound 0.8 µM): 0.165
relative viability ([10]; first compound 2.53 µM): 0.18
relative viability ([11]; first compound 0.08 µM): 0.498
relative viability ([11]; first compound 0.253 µM): 0.471
relative viability ([11]; first compound 0.8 µM): 0.509
relative viability ([11]; first compound 2.53 µM): 0.504
relative viability ([12]; first compound 0.08 µM): 0.336
relative viability ([12]; first compound 0.253 µM): 0.279
relative viability ([12]; first compound 0.8 µM): 0.305
relative viability ([12]; first compound 2.53 µM): 0.293
relative viability ([13]; first compound 0.08 µM): 0.685
relative viability ([13]; first compound 0.253 µM): 0.58
relative viability ([13]; first compound 0.8 µM): 0.597
relative viability ([13]; first compound 2.53 µM): 0.675
relative viability ([14]; first compound 0.08 µM): 0.436
relative viability ([14]; first compound 0.253 µM): 0.44
relative viability ([14]; first compound 0.8 µM): 0.561
relative viability ([14]; first compound 2.53 µM): 0.234
relative viability ([15]; first compound 0.08 µM): 0.378
relative viability ([15]; first compound 0.253 µM): 0.333
relative viability ([15]; first compound 0.8 µM): 0.279
relative viability ([15]; first compound 2.53 µM): 0.411
relative viability ([16]; first compound 0.08 µM): 0.258
relative viability ([16]; first compound 0.253 µM): 0.263
relative viability ([16]; first compound 0.8 µM): 0.248
relative viability ([16]; first compound 2.53 µM): 0.207
relative viability ([17]; first compound 0.08 µM): 0.388
relative viability ([17]; first compound 0.253 µM): 0.412
relative viability ([17]; first compound 0.8 µM): 0.445
relative viability ([17]; first compound 2.53 µM): 0.355
relative viability ([18]; first compound 0.08 µM): 0.976
relative viability ([18]; first compound 0.253 µM): 0.636
relative viability ([18]; first compound 0.8 µM): 0.897
relative viability ([18]; first compound 2.53 µM): 0.876
relative viability ([19]; first compound 0.08 µM): 0.306
relative viability ([19]; first compound 0.253 µM): 0.232
relative viability ([19]; first compound 0.8 µM): 0.336
relative viability ([19]; first compound 2.53 µM): 0.277
relative viability ([20]; first compound 0.08 µM): 0.471
relative viability ([20]; first compound 0.253 µM): 0.378
relative viability ([20]; first compound 0.8 µM): 0.381
relative viability ([20]; first compound 2.53 µM): 0.51
relative viability ([21]; first compound 0.08 µM): 0.681
relative viability ([21]; first compound 0.253 µM): 0.602
relative viability ([21]; first compound 0.8 µM): 0.663
relative viability ([21]; first compound 2.53 µM): 0.697
relative viability ([22]; first compound 0.08 µM): 0.542
relative viability ([22]; first compound 0.253 µM): 0.403
relative viability ([22]; first compound 0.8 µM): 0.357
relative viability ([22]; first compound 2.53 µM): 0.392
